Test results: US20230203060A1 (GENFLEET THERAPEUTICS (SHANGHAI) INC., priority 2020, published 2023)

Legend:
[1] = system: phosphorylated ERK downstream of KRAS G12C in MIA PaCa2 cells; experiment: Cell p-ERK detection experiment (HTRF) in MIA PaCa2; type: cell-based, human; conditions: Homo sapiens, MIA PaCa-2, 2 h, MIA PaCa2 cells, 2 hours with compound, Advance ERK phospho-T202/Y204 HTRF kit; read-out: p-ERK IC50
In short: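 Phospho-ERK (T202/Y204) measured by HTRF after 30 min lysis and 4 h antibody incubation in MIA PaCa2 (KRAS G12C) cells, seeded at 2.5E4 per well and treated 2 h with compounds in 3.16-fold steps, final DMSO 0.1%. IC50 from a four-parameter fit of percent inhibition relative to DMSO and blank wells.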

[2] = system: KRAS G12C mutant MIA PaCa-2 cells; experiment: Cell proliferation inhibition experiment, 3D spheroid, CellTiter-Glo, MIA PaCa-2; type: cell-based, human; conditions: Homo sapiens, MIA PaCa-2, 120 h, 3D cell model in 384-well spheroid plate, 5 days, CellTiter-Glo; read-out: MIA-PaCa2 IC50
In short: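 Luminescent ATP read-out (CellTiter-Glo) after 5-day compound treatment of spheroids formed overnight from 200 MIA PaCa-2 cells/well; compounds in 3.16-fold series, 0.1% DMSO final. IC50 derived by four-parameter fit of percent inhibition, normalized to DMSO control and medium blank.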

| Structure (SMILES) | IC50 [1] | IC50 [2] |
| --- | --- | --- |
| C=CC(=O)N1CCN2C(=O)c3c(N4CCOC[C@@H]4C)nc(-c4c(O)cccc4F)c(Cl)c3OC[C@H]2C1 [Z32] | 80 nM | 11 nM |
| C=CC(=O)N1CCN2C(=O)c3c(N4C[C@@H](N5CC(F)C5)CC4(C)C)nc(-c4ccccc4F)c(Cl)c3OC[C@H]2C1 [Z480-1, (R)-8-acryloyl-4-chloro-1-((S)-4-(3-fluoroazetidin-1-yl)-2,2-dimethylpyrrolidin-1-yl)-3-(2-fluorophenyl)-6,6a,7,8,9,10-hexahydro-12H-pyrazino[2,1-c]pyrido[3,4-f][1,4]oxazepin-12-one] | 13 nM | 10 nM |
| C=CC(=O)N1CCN2C(=O)c3c(N4C[C@@H](N5CC(C#N)C5)CC4(C)C)nc(-c4ccccc4F)c(Cl)c3OC[C@H]2C1 (single isomer, unassigned) [Z637-2] | 68 nM | 10 nM |
| C=CC(=O)N1CCN2C(=O)c3c(N4C[C@H](N(C)CC(F)(F)F)CC4(C)C)nc(-c4ccccc4F)c(Cl)c3OC[C@H]2C1 (single isomer, unassigned) [Z493] | 433 nM | 112 nM |
| C=CC(=O)N1CCN2C(=O)c3c(N4CCC(OC)C4(C)C)nc(-c4c(N)cccc4F)c(Cl)c3OC[C@H]2C1 (stereo partly drawn) [Z506, (6aR)-8-acryloyl-3-(2-amino-6-fluorophenyl)-4-chloro-1-(3-methoxy-2,2-dimethylpyrrolidin-1-yl)-6,6a,7,8,9,10-hexahydro-12H-pyrazino[2,1-c]pyrido[3,4-f][1,4]oxazepin-12-one] | 11 nM | 2.2 nM |
| C=CC(=O)N1CCN2C(=O)c3c(N4C[C@H](N5CCN(C)CC5)C[C@@H]4C)nc(-c4ccccc4F)c(Cl)c3OC[C@H]2C1 [Z470-1] | 255 nM | 43 nM |
| C=CC(=O)N1CCN2C(=O)c3c(N4CCN(C)C[C@@H]4C)nc(-c4c(F)cccc4Cl)c(Cl)c3OC[C@H]2C1 [Z547, (6aR)-8-acryloyl-4-chloro-3-(2-chloro-6-fluorophenyl)-1-((S)-2,4-dimethylpiperazin-1-yl)-6,6a,7,8,9,10-hexahydro-12H-pyrazino[2,1-c]pyrido[3,4-f][1,4]oxazepin-12-one] | 135 nM | 43 nM |
| C=CC(=O)N1CCN2C(=O)c3c(N4C[C@@H](O)CC4(C)C)nc(-c4ccccc4F)c(F)c3OC[C@H]2C1 (single isomer, unassigned) [Z408-1] | 305 nM | 79.3 nM |
| C=CC(=O)N1CCN2C(=O)c3c(N4C[C@@H](N5CCN(C)CC5)C[C@@H]4C)nc(-c4ccccc4F)c(Cl)c3OC[C@H]2C1 [Z470-2] | 24 nM | 4 nM |
| C=CC(=O)N1CCN2C(=O)c3c(N4C[C@H](N5CC(C#N)C5)CC4(C)C)nc(-c4ccccc4F)c(Cl)c3OC[C@H]2C1 (single isomer, unassigned) [Z637-1] | 1120 nM | 549 nM |
| C=CC(=O)N1CCN2C(=O)c3c(N4CC(O)CC4(C)C)nc(-c4ccccc4Cl)c(F)c3OC[C@H]2C1 (stereo partly drawn) [Z414-1, (6aR)-8-acryloyl-3-(2-chlorophenyl)-4-fluoro-1-(4-hydroxy-2,2-dimethylpyrrolidin-1-yl)-6,6a,7,8,9,10-hexahydro-12H-pyrazino[2,1-c]pyrido[3,4-f][1,4]oxazepin-12-one] | 103 nM | 126 nM |
| C=CC(=O)N1CCN2C(=O)c3c(N4C[C@H](N5CC(F)(F)C5)CC4(C)C)nc(-c4ccccc4F)c(Cl)c3OC[C@H]2C1 (single isomer, unassigned) [Z525-1] | 1280 nM | 478 nM |
| C=CC(=O)N1CCN2C(=O)c3c(N[C@H](C)c4ccccc4)nc(-c4c(O)cccc4F)c(Cl)c3OC[C@H]2C1 [Z28, (6aR)-8-acryloyl-4-chloro-3-(2-fluoro-6-hydroxyphenyl)-1-(((R)-1-phenylethyl)amino)-6,6a,7,8,9,10-hexahydro-12H-pyrazino[2,1-c]pyrido[3,4-f][1,4]oxazepin-12-one] | – | 150 nM |
| C=CC(=O)N1CCN2C(=O)c3c(N4C[C@@H](N(C)C)CC4(C)C)nc(-c4cccc(F)c4F)c(Cl)c3OC[C@H]2C1 [Z473-1, (R)-8-acryloyl-4-chloro-3-(2,3-difluorophenyl)-1-((S)-4-(dimethylamino)-2,2-dimethylpyrrolidin-1-yl)-6,6a,7,8,9,10-hexahydro-12H-pyrazino[2,1-c]pyrido[3,4-f][1,4]oxazepin-12-one] | 151 nM | – |
| C=CC(=O)N1CCN2C(=O)c3c(OC4CCCN(C)C4)nc(-c4c(O)cccc4F)c(Cl)c3OC[C@H]2C1 (stereo partly drawn) [Z43, (6aR)-8-acryloyl-4-chloro-3-(2-fluoro-6-hydroxyphenyl)-1-((1-methylpiperidin-3-yl)oxy)-6,6a,7,8,9,10-hexahydro-12H-pyrazino[2,1-c]pyrido[3,4-f][1,4]oxazepin-12-one] | – | 34 nM |
| C=CC(=O)N1CCN2C(=O)c3c(N4C[C@H](N5CCC5)CC4(C)C)nc(-c4ccccc4F)c(Cl)c3OC[C@H]2C1 (single isomer, unassigned) [Z471-2] | 1080 nM | – |
| C=CC(=O)N1CCN2C(=O)c3c(N4CC[C@@H](N(C)C)C4(C)C)nc(-c4ccccc4F)c(Cl)c3OC[C@H]2C1 [Z502-1, (6aR)-8-acryloyl-4-chloro-1-(3-(dimethylamino)-2,2-dimethylpyrrolidin-1-yl)-3-(2-fluorophenyl)-6,6a,7,8,9,10-hexahydro-12H-pyrazino[2,1-c]pyrido[3,4-f][1,4]oxazepin-12(6aH)-one] | 196 nM | – |
| C=CC(=O)N1CCN2C(=O)c3c(N4C[C@H](N5CCN(C)CC5)CC4(C)C)nc(-c4c(F)cccc4Cl)c(Cl)c3OC[C@H]2C1 (single isomer, unassigned) [Z635-2] | 55 nM | – |
| C=CC(=O)N1CCN2C(=O)c3c(N4CCC[C@H]4C)nc(-c4c(O)cccc4F)c(Cl)c3OC[C@H]2C1 [Z48, (6aR)-8-acryloyl-1-((R)-2-methylpyrrolidin-1-yl)-4-chloro-3-(2-fluoro-6-hydroxyphenyl)-6,6a,7,8,9,10-hexahydro-12H-pyrazino[2,1-c]pyrido[3,4-f][1,4]oxazepin-12-one] | – | 28 nM |
| C=CC(=O)N1CCN2C(=O)c3c(N4CCN(C)C[C@@H]4C)nc(C#CC)c(Cl)c3OC[C@H]2C1 [Z459, (R)-8-acryloyl-4-chloro-1-((S)-2,4-dimethylpiperazin-1-yl)-3-(prop-1-yn-1-yl)-6,6a,7,8,9,10-hexahydro-12H-pyrazino[2,1-c]pyrido[3,4-f][1,4]oxazepin-12-one] | – | > 1000 nM |
| C=CC(=O)N1CCN2C(=O)c3c(N4CCN(C)C[C@@H]4C)nc(-c4ccccc4Cl)c(Cl)c3OC[C@H]2C1 [Z461, (R)-8-acryloyl-4-chloro-3-(2-chlorophenyl)-1-((S)-2,4-dimethylpiperazin-1-yl)-6,6a,7,8,9,10-hexahydro-12H-pyrazino[2,1-c]pyrido[3,4-f][1,4]oxazepin-12-one] | – | 33 nM |

Second part, the compound after the results:

| IC50 [1] | IC50 [2] | Structure (SMILES) |
| --- | --- | --- |
| 62 nM | 7 nM | C=CC(=O)N1CCN2C(=O)c3c(N4CCC[C@@H]4C)nc(-c4c(O)cccc4F)c(Cl)c3OC[C@H]2C1 [Z49, (6aR)-8-acryloyl-1-((S)-2-methylpyrrolidin-1-yl)-4-chloro-3-(2-fluoro-6-hydroxyphenyl)-6,6a,7,8,9,10-hexahydro-12H-pyrazino[2,1-c]pyrido[3,4-f][1,4]oxazepin-12-one] |
| 82 nM | 16 nM | C=CC(=O)N1CCN2C(=O)c3c(N4CC(N5CCOCC5)CC4(C)C)nc(-c4ccccc4F)c(Cl)c3OC[C@H]2C1 (single isomer, unassigned) [Z468-1] |
| 461 nM | 113 nM | C=CC(=O)N1CCN2C(=O)c3c(N4C[C@@H](N(C)C)CC4(C)C)nc(-c4ccccc4)c(Cl)c3OC[C@H]2C1 (single isomer, unassigned) [Z655-1] |
| 141 nM | 34 nM | C=CC(=O)N1CCN2C(=O)c3c(N4CC(O)CC4(C)C)nc(-c4c(F)cccc4OC)c(F)c3OC[C@H]2C1 (single isomer, unassigned) [Z450] |
| 129 nM | 71 nM | C=CC(=O)N1CCN2C(=O)c3c(N4CCCC45CC5)nc(-c4c(O)cccc4F)c(Cl)c3OC[C@H]2C1 [Z56, (6aR)-8-acryloyl-4-chloro-3-(2-fluoro-6-hydroxyphenyl)-1-(4-azaspiro[2.4]heptan-4-yl)-6,6a,7,8,9,10-hexahydro-12H-pyrazino[2,1-c]pyrido[3,4-f][1,4]oxazepin-12-one] |
| 397 nM | 522 nM | C=CC(=O)N1CCN2C(=O)c3c(NC(C)(C)C)nc(-c4ccccc4F)c(Cl)c3OC[C@H]2C1 [Z457, (R)-8-acryloyl-1-(tert-butylamino)-4-chloro-3-(2-fluorophenyl)-6,6a,7,8,9,10-hexahydro-12H-pyrazino[2,1-c]pyrido[3,4-f][1,4]oxazepin-12-one] |
| 14 nM | – | C=CC(=O)N1CCN2C(=O)c3c(N4C[C@@H](N5CCN(C)CC5)CC4(C)C)nc(-c4c(F)cccc4Cl)c(Cl)c3OC[C@H]2C1 (single isomer, unassigned) [Z635-1] |
| 61 nM | – | C=CC(=O)N1CCN2C(=O)c3c(N4CCN(C(=O)CC)C[C@@H]4C)nc(-c4ccccc4F)c(Cl)c3OC[C@H]2C1 [Z477, (R)-8-acryloyl-4-chloro-3-(2-fluorophenyl)-1-((S)-2-methyl-4-propionylpiperazin-1-yl)-6,6a,7,8,9,10-hexahydro-12H-pyrazino[2,1-c]pyrido[3,4-f][1,4]oxazepin-12(6aH)-one] |
| 137 nM | – | C=CC(=O)N1CCN2C(=O)c3c(N4CCN(C)[C@@H](C)[C@H]4C)nc(-c4ccccc4F)c(Cl)c3OC[C@H]2C1 (single isomer, unassigned) [Z465-1] |
| 31 nM | – | C=CC(=O)N1CCN2C(=O)c3c(N4C[C@@H](N(C)CCO)CC4(C)C)nc(-c4ccccc4F)c(Cl)c3OC[C@H]2C1 (single isomer, unassigned) [Z658-1] |
